test system: IL-5 production; experiment: In vitro inhibition of IL-5 production in human blood (phytohemagglutinin-stimulated whole blood, ELISA); type: cell-based; conditions: test dose 1×10^−5 M (values marked *), 48 hours, read-out: % inh. (percentage inhibition of IL-5 production), marked with *
Method in brief: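 Heparinised blood from healthy male donors, diluted threefold in RPMI 1640, preincubated 60 min at 37° C with compound (0.02% DMSO vehicle), then stimulated with 2 μg/mL phytohemagglutinin for 48 h. Supernatant IL-5 measured by ELISA; percentage inhibition at 1×10^−6 M or 1×10^−5 M.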

Q: Which inhibition at 10 µM does the source give for `O=c1cnn(-c2ccc(C(NCc3ncc[nH]3)c3ccc(Cl)cc3)c(Cl)c2)c(=O)[nH]1` (racemic) [Compound 50, (±)-2-[3-chloro-4-[(4-chlorophenyl)[(1H-imidazol-2-ylmethyl)amino]methyl]phenyl]-1,2,4-triazine-3,5(2H,4H)-dione] here?
A: 20%

same assay, conditions: test dose 1×10^−6 M, 48 hours

Q: `O=c1cnn(-c2ccc(C(Sc3nccc(-c4cccs4)n3)c3ccc(Cl)cc3)c(Cl)c2)c(=O)[nH]1` (stereo not shown) [Compound 84] was tested. Which “% inh. (percentage inhibition of IL-5 production)” value did it give?
A: 73%

Q: With `CC(C)c1sc(C(c2ccc(Cl)cc2)c2c(Cl)cc(-n3ncc(=O)[nH]c3=O)cc2Cl)nc1-c1ccccc1` (racemic) [Compound 241, (±)-2-[3,5-dichloro-4-[(4-chlorophenyl)[5-(1-methylethyl)-4-phenyl-2-thiazolyl]methyl]-phenyl-1,2,4-triazin-3,5(2H,4H)-dione] as the compound, how does the “% inh. (percentage inhibition of IL-5 production)” value read?
A: 95%

Q: Which “% inh. (percentage inhibition of IL-5 production)” value does the source give for `Cc1ccccc1-c1nc(C(c2ccc(Cl)cc2)c2c(Cl)cc(-n3ncc(=O)[nH]c3=O)cc2Cl)cs1` (racemic) [Compound 374] here?
A: 94%

Q: `Cc1nc(-c2ccccc2Cl)sc1C(c1ccc(Cl)cc1)c1c(Cl)cc(-n2ncc(=O)[nH]c2=O)cc1Cl` (racemic) [Compound 137] was tested. Which “% inh. (percentage inhibition of IL-5 production)” value did it give?
A: 64%

Q: `Nc1cc(O)nc(SC(c2ccc(Cl)cc2)c2ccc(-n3ncc(=O)[nH]c3=O)cc2Cl)n1` (stereo not shown) [Compound 87] was tested. Which “% inh. (percentage inhibition of IL-5 production)” value did it give?
A: 9%

Q: How did the “% inh. (percentage inhibition of IL-5 production)” value turn out when `O.O=c1cnn(-c2ccc(C(Sc3nccc(O)n3)c3ccc(Cl)cc3)c(Cl)c2)c(=O)[nH]1` (racemic) [Compound 61] was run?
A: 14%

Q: For `O=c1cnn(-c2cc(Cl)c(C(c3ccc(Cl)cc3)c3cnc(-c4ccccc4)s3)c(Cl)c2)c(=O)[nH]1` (racemic) [Compound 142], which “% inh. (percentage inhibition of IL-5 production)” value is on record?
A: 80%

Q: `O=c1cnn(-c2ccc(C(c3ccc(Cl)cc3)c3nnc(-c4ccccc4)s3)c(Cl)c2)c(=O)[nH]1` (stereo not shown) [Comp 414] was tested. Which “% inh. (percentage inhibition of IL-5 production)” value did it give?
A: 30%

Q: `O=c1cnn(-c2ccc(C(Sc3ccncc3)c3ccc(Cl)cc3)c(Cl)c2)c(=O)[nH]1` (racemic) [Compound 65] was tested. Which “% inh. (percentage inhibition of IL-5 production)” value did it give?
A: 50%

Q: For `O=c1cnn(-c2ccc(C(Sc3nnc(C(F)(F)F)[nH]3)c3ccc(Cl)cc3)c(Cl)c2)c(=O)[nH]1` (stereo not shown) [Compound 89], which “% inh. (percentage inhibition of IL-5 production)” value is on record?
A: 19%

Q: `CCOC(=O)c1nnc(C(c2ccc(Cl)cc2)c2c(Cl)cc(-n3ncc(=O)[nH]c3=O)cc2Cl)o1` (racemic) [Compound 186] was tested. Which “% inh. (percentage inhibition of IL-5 production)” value did it give?
A: 8%

Q: `Cc1sc(C(c2ccc(Cl)cc2)c2c(Cl)cc(-n3ncc(=O)[nH]c3=O)cc2Cl)nc1-c1c(F)cccc1F` (racemic) [Comp 268] was tested. Which “% inh. (percentage inhibition of IL-5 production)” value did it give?
A: 83%

Q: For `O=c1cnn(-c2cc(Cl)c(C(c3ccc(Cl)cc3)c3ncc(-c4ccccc4)s3)c(Cl)c2)c(=O)[nH]1` (racemic) [Comp 267], which “% inh. (percentage inhibition of IL-5 production)” value is on record?
A: 81%

Q: For `N#CCc1nnc(C(c2ccc(Cl)cc2)c2c(Cl)cc(-n3ncc(=O)[nH]c3=O)cc2Cl)o1` (racemic) [Compound 179], which “% inh. (percentage inhibition of IL-5 production)” value is on record?
A: 21%

Q: How did the “% inh. (percentage inhibition of IL-5 production)” value turn out when `CC(c1ccc(Cl)c(C(F)(F)F)c1)(c1nc(-c2ccccc2)cs1)c1c(Cl)cc(-n2ncc(=O)[nH]c2=O)cc1Cl` (racemic) [Comp 23] was run?
A: 83%

Q: How did the “% inh. (percentage inhibition of IL-5 production)” value turn out when `O=c1cnn(-c2cc(Cl)c(C(c3ccc(Cl)cc3)c3nc(-c4ccc(Br)cc4)cs3)c(Cl)c2)c(=O)[nH]1` (racemic) [Comp 294] was run?
A: 85%

same assay, conditions: test dose 1×10^−6 M, 48 hours, read-out: % inh. (percentage inhibition of IL-5 production)

Q: `CC(c1ccc(Cl)cc1)(c1nc2ccccc2o1)c1ccc(-n2ncc(=O)[nH]c2=O)cc1Cl` (racemic) [Compound 132, (±)-2-[3-chloro-4-[1-(4-chlorophenyl)-1-(2-benzoxazolyl)ethyl]phenyl]-1,2,4-triazine-3,5(2H,4H)-dione] was tested. Which inhibition at 1 µM did it give?
A: 55%

Q: For `CN1CCN(C(c2ccc(Cl)cc2)c2ccc(-n3ncc(=O)[nH]c3=O)cc2Cl)CC1` (racemic) [Compound 118, (±)-2-[3-chloro-4-[(4-chlorophenyl)(4-methyl-1-piperazinyl)methyl]phenyl]-1,2,4-triazine-3,5(2H,4H)-dione], which inhibition at 1 µM is on record?
A: 34%
